Legend:
mouse xenograft models = details: cited from earlier work
[1] = tested on: previously treated advanced ccRCC; assay: Anti-tumor activity per RECIST v1.1, ccRCC cohort; type: in vivo, human
[2] = previous study; cited from earlier work
advanced solid tumors = assay: Anti-tumor activity per RECIST v1.1, dose-escalation cohort; type: in vivo, human
erythropoietin = assay: Pharmacodynamics: plasma erythropoietin, phase 1 study; type: in vivo, human; details: all dose levels
[3] = Plasma pharmacokinetics of belzutifan, phase 1 study; type: in vivo, human
Safety = type: in vivo, human; details: for All-cause adverse event: Anemia / All-cause adverse event: Any / All-cause adverse event: Arthralgia / All-cause adverse event: Back pain / All-cause adverse event: Blood creatinine increased / All-cause adverse event: Constipation / All-cause adverse event: Cough / All-cause adverse event: Dehydration / All-cause adverse event: Diarrhea / All-cause adverse event: Dizziness / All-cause adverse event: Dyspnea / All-cause adverse event: Edema peripheral / All-cause adverse event: Fatigue / All-cause adverse event: Headache / All-cause adverse event: Hyperkalemia / All-cause adverse event: Hypoxia / All-cause adverse event: Nausea / All-cause adverse event: Vomiting: ccRCC cohort (n = 55)
[4] = Safety and dose-limiting toxicities, dose-escalation cohort; type: in vivo, human
[5] = RECIST v1.1, ccRCC cohort, n = 55
[6] = ccRCC cohort n = 55, all grade 3

CS(=O)(=O)c1ccc(Oc2cc(F)cc(C#N)c2)c2c1[C@H](O)C(F)(F)C2 [MK-3795, reference compound]
Tumor regression (mouse xenograft models; xenograft models): significant tumor regression

CS(=O)(=O)c1ccc(Oc2cc(F)cc(C#N)c2)c2c1[C@H](O)[C@H](F)[C@@H]2F [belzutifan, 3-[(1 S,2 S,3 R)-2,3-difluoro-1-hydroxy-7-methylsulfonylindan-4-yl]oxy-5-fluorobenzo nitrile]
Patients with target lesion size reduced from baseline ([1]; 35 of 52 patients with baseline and post-baseline imaging): 67%
Median progression-free survival ([1]; IMDC favorable risk): not reached
Complete response [1, 5]: 0 (0) no. (%)
Non-evaluable [1, 5]: 3 (5) no. (%)
Partial response [1, 5]: 14 (25) no. (%)
Progressive disease [1, 5]: 8 (15) no. (%)
Stable disease [1, 5]: 30 (54) no. (%)
Median duration of response ([1]; ccRCC cohort): not reached
Disease control rate ([1]; ccRCC cohort n = 55, 120 mg once daily): 80%
Objective response rate ([1]; ccRCC cohort n = 55, 120 mg once daily, all partial responses): 25%
Median progression-free survival ([1]; ccRCC cohort, 95% CI 7.3–not reached, Kaplan–Meier): 14.5 months
Responders with duration of response ≥6 months ([1]; ten of 14 responders): 71%
Exposure to belzutifan, dependence on dose [2]: increased with doses up to 120 mg once daily
Responses (all partial) (advanced solid tumors; 120 mg once daily, one of six patients): 17%
Responses (all partial) (advanced solid tumors; 120 mg twice daily, one of six patients): 17%
Responses (all partial) (advanced solid tumors; 160 mg once daily, two of six patients): 33%
Median duration of response (advanced solid tumors; any dose cohort, patients who had a response): not reached
Change in plasma erythropoietin (erythropoietin): reductions
Potency relative to MK-3795 (mouse xenograft models; mouse xenograft models): approximately ten-fold more potent than MK-3795
Dose-normalized area under the concentration curve from time 0 to the end of the dosing period, dependence on dose ([3]; 20–240 mg once daily): increased with dose from 20 to 120 mg but decreased from 120 to 240 mg once daily
Mean accumulation ratio ([3]; 120-mg twice-daily dosing): 2.4
Increase in maximum concentration ([3]; 240-mg once-daily cohort compared to 120-mg once-daily expansion cohort): 38%
Median time to maximum observed plasma concentration ([3]; across dose levels, oral): 1.0 to 2.0 h
half-life ([3]; human, in vivo, po): 11.2 to 21.5 h
Mean accumulation ratio ([3]; once-daily dosing): 1.3–1.5
Patients with anemia who received exogenous erythropoietin (Safety; 28 of 42 patients with anemia): 67%
All-cause adverse event: Anemia (Safety; All grades or 2): 42 (76) no. (%)
All-cause adverse event: Any (Safety; All grades or 2): 55 (100) no. (%)
All-cause adverse event: Arthralgia (Safety; All grades or 2): 14 (25) no. (%)
All-cause adverse event: Back pain (Safety; All grades or 2): 12 (22) no. (%)
All-cause adverse event: Blood creatinine increased (Safety; All grades or 2): 14 (25) no. (%)
All-cause adverse event: Constipation (Safety; All grades or 2): 12 (22) no. (%)
All-cause adverse event: Cough (Safety; All grades or 2): 17 (31) no. (%)
All-cause adverse event: Dehydration (Safety; All grades or 2): 11 (20) no. (%)
All-cause adverse event: Diarrhea (Safety; All grades or 2): 12 (22) no. (%)
All-cause adverse event: Dizziness (Safety; All grades or 2): 13 (24) no. (%)
All-cause adverse event: Dyspnea (Safety; All grades or 2): 27 (49) no. (%)
All-cause adverse event: Edema peripheral (Safety; All grades or 2): 15 (27) no. (%)
All-cause adverse event: Fatigue (Safety; All grades or 2): 39 (71) no. (%)
All-cause adverse event: Headache (Safety; All grades or 2): 14 (25) no. (%)
All-cause adverse event: Hyperkalemia (Safety; All grades or 2): 12 (22) no. (%)
All-cause adverse event: Hypoxia (Safety; All grades or 2): 17 (31) no. (%)
All-cause adverse event: Nausea (Safety; All grades or 2): 20 (36) no. (%)
All-cause adverse event: Vomiting (Safety; All grades or 2): 16 (29) no. (%)
All-cause adverse event: Anemia (Safety; Grade 1): 27 (49) no. (%)
All-cause adverse event: Any (Safety; Grade 1): 16 (29) no. (%)
All-cause adverse event: Arthralgia (Safety; Grade 1): 14 (25) no. (%)
All-cause adverse event: Back pain (Safety; Grade 1): 11 (20) no. (%)
All-cause adverse event: Blood creatinine increased (Safety; Grade 1): 13 (24) no. (%)
All-cause adverse event: Constipation (Safety; Grade 1): 12 (22) no. (%)
All-cause adverse event: Cough (Safety; Grade 1): 17 (31) no. (%)
All-cause adverse event: Dehydration (Safety; Grade 1): 10 (18) no. (%)
All-cause adverse event: Diarrhea (Safety; Grade 1): 12 (22) no. (%)
All-cause adverse event: Dizziness (Safety; Grade 1): 13 (24) no. (%)
All-cause adverse event: Dyspnea (Safety; Grade 1): 24 (44) no. (%)
All-cause adverse event: Edema peripheral (Safety; Grade 1): 15 (27) no. (%)
All-cause adverse event: Fatigue (Safety; Grade 1): 36 (65) no. (%)
All-cause adverse event: Headache (Safety; Grade 1): 13 (24) no. (%)
All-cause adverse event: Hyperkalemia (Safety; Grade 1): 11 (20) no. (%)
All-cause adverse event: Hypoxia (Safety; Grade 1): 8 (15) no. (%)
All-cause adverse event: Nausea (Safety; Grade 1): 19 (35) no. (%)
All-cause adverse event: Vomiting (Safety; Grade 1): 16 (29) no. (%)
All-cause adverse event: Anemia (Safety; Grade 3): 15 (27) no. (%)
All-cause adverse event: Any (Safety; Grade 3): 33 (60) no. (%)
All-cause adverse event: Arthralgia (Safety; Grade 3): 0 (0) no. (%)
All-cause adverse event: Back pain (Safety; Grade 3): 1 (2) no. (%)
All-cause adverse event: Blood creatinine increased (Safety; Grade 3): 1 (2) no. (%)
All-cause adverse event: Constipation (Safety; Grade 3): 0 (0) no. (%)
All-cause adverse event: Cough (Safety; Grade 3): 0 (0) no. (%)
All-cause adverse event: Dehydration (Safety; Grade 3): 1 (2) no. (%)
All-cause adverse event: Diarrhea (Safety; Grade 3): 0 (0) no. (%)
All-cause adverse event: Dizziness (Safety; Grade 3): 0 (0) no. (%)
All-cause adverse event: Dyspnea (Safety; Grade 3): 3 (5) no. (%)
All-cause adverse event: Edema peripheral (Safety; Grade 3): 0 (0) no. (%)
All-cause adverse event: Fatigue (Safety; Grade 3): 3 (5) no. (%)
All-cause adverse event: Headache (Safety; Grade 3): 1 (2) no. (%)
All-cause adverse event: Hyperkalemia (Safety; Grade 3): 1 (2) no. (%)
All-cause adverse event: Hypoxia (Safety; Grade 3): 9 (16) no. (%)
All-cause adverse event: Nausea (Safety; Grade 3): 1 (2) no. (%)
All-cause adverse event: Vomiting (Safety; Grade 3): 0 (0) no. (%)
All-cause adverse event: Anemia (Safety; Grade 4): 0 (0) no. (%)
All-cause adverse event: Any (Safety; Grade 4): 2 (4) no. (%)
All-cause adverse event: Arthralgia (Safety; Grade 4): 0 (0) no. (%)
All-cause adverse event: Back pain (Safety; Grade 4): 0 (0) no. (%)
All-cause adverse event: Blood creatinine increased (Safety; Grade 4): 0 (0) no. (%)
All-cause adverse event: Constipation (Safety; Grade 4): 0 (0) no. (%)
All-cause adverse event: Cough (Safety; Grade 4): 0 (0) no. (%)
All-cause adverse event: Dehydration (Safety; Grade 4): 0 (0) no. (%)
All-cause adverse event: Diarrhea (Safety; Grade 4): 0 (0) no. (%)
All-cause adverse event: Dizziness (Safety; Grade 4): 0 (0) no. (%)
All-cause adverse event: Dyspnea (Safety; Grade 4): 0 (0) no. (%)
All-cause adverse event: Edema peripheral (Safety; Grade 4): 0 (0) no. (%)
All-cause adverse event: Fatigue (Safety; Grade 4): 0 (0) no. (%)
All-cause adverse event: Headache (Safety; Grade 4): 0 (0) no. (%)
All-cause adverse event: Hyperkalemia (Safety; Grade 4): 0 (0) no. (%)
All-cause adverse event: Hypoxia (Safety; Grade 4): 0 (0) no. (%)
All-cause adverse event: Nausea (Safety; Grade 4): 0 (0) no. (%)
All-cause adverse event: Vomiting (Safety; Grade 4): 0 (0) no. (%)
Patients requiring dose reductions or discontinuations for anemia (Safety; ccRCC cohort): No patients
Patients with at least one adverse event (Safety; ccRCC cohort): All patients
Treatment-related grade 4 or 5 events (Safety; ccRCC cohort): No treatment-related grade 4 or 5 events occurred
Treatment-related adverse event: anemia (Safety; ccRCC cohort n = 55): 71%
Treatment-related adverse event: hypoxia (Safety; ccRCC cohort n = 55): 18%
Treatment-related adverse event: nausea (Safety; ccRCC cohort n = 55): 15%
Treatment-related adverse event: peripheral edema (Safety; ccRCC cohort n = 55): 16%
Grade ≥3 treatment-emergent adverse event: anemia (Safety; [6]): 27%
Grade ≥3 treatment-emergent adverse event: hypoxia (Safety; [6]): 16%
Patients requiring dose reductions because of treatment-related adverse events (Safety; ccRCC cohort, five patients): 9%
Patients who discontinued after treatment-related adverse events (Safety; ccRCC cohort, two patients, both hypoxia): 4%
Patients with grade 5 adverse events (Safety; ccRCC cohort, disease progression, malignant neoplasm progression, acute kidney injury, cardiac arrest): four patients
Patients with treatment-related dose-limiting toxicity ([4]; 120 mg twice daily, one of six patients, grade 3 hypoxia): 17%
Patients with treatment-related dose-limiting toxicity ([4]; 240 mg orally, one of seven patients, grade 4 thrombocytopenia): 14%
Maximum tolerated dose ([4]; dose-escalation cohort): not reached
Dose-limiting toxicities ([4]; doses up to 160 mg once daily): no dose-limiting toxicities
